Consider five molecules from paper PMC6272715, “Discovery of Novel Small Molecule Anti-HCV Agents via the CypA Inhibitory Mechanism Using O-Acylation-Directed Lead Optimization” (Molecules, 2015).

One series concerns the target CypA (Homo sapiens, UniProt P62937). The series can be described thus: CypA enzyme inhibition assay (chymotrypsin-coupled PPIase assay). The following applies: mean ± SD of five independent experiments. Format: biochemical. As for the experimental part: The PPIase activity of CypA was conducted in a coupled assay with chymotrypsin using the synthetic tetrapeptide N-succinyl-Ala-Ala-Pro-Phe-p-nitroanilide (Sigma, Shanghai, China) as described in [34] with small modifications. The assay buffer (20 mM Tris-HCl, 50 mM NaCl, pH 7.8) and CypA were precooled at 4 °C and mixed with 0.4 mg∙mL^−1 chymotrypsin (20 mg∙mL^−1 in 1 mM HCl). The reaction was initiated by adding peptide substrate (2 mg∙mL^−1 in 500 mM LiCl in tetrahydrofuran (THF)). […] Absorbance readings were collected every 0.1 s and the temperature was controlled at 4 °C during the assay. The progress curves were analyzed by nonlinear least-squares fit. The inhibition assays of compounds were performed in the same manner as above-mentioned. […] of test compounds in DMSO, at various concentrations, was added to the CypA solution in the assay buffer. After being preincubated for 1 h at 4 °C, the assay was started by the addition of chymotrypsin and the substrate. To calculate the half-maximal inhibitory concentration (IC50), a percent of the remaining PPIase activity was plotted against the common logarithm of the compound concentration, and the data were fitted using the sigmoidal fitting model of Origin 7.0 software.

The test system of the next series is HCV JFH1-2a replicon. Briefly: HCV JFH1-2a subgenomic replicon assay (Renilla luciferase, Huh 7.5.1 replicon cells). Type of series: cell-based. The following applies: Hepatitis C virus. A general note: A replicon is a self-replicating genome or part of one, used to study replication in cells.
Series [1] concerns JFH1-2a virus (wild type). The series can be described thus: HCV virus assay, JFH1-2a wild type, Huh 7.5.1 cells. The following applies: Hepatitis C virus.
Another series deals with HCV H77-1a replicon. Briefly: HCV H77-1a subgenomic replicon assay. The settings on record: Hepatitis C virus; Table 4; read-out: Anti-HCV Activity EC50 ± SD Replicon Assay H77-1a. Type of series: cell-based.
The test system of another series is HCV Con1-1b replicon. Briefly: HCV Con1-1b subgenomic replicon assay. Format: cell-based. The settings on record: Hepatitis C virus; Table 4; read-out: Anti-HCV Activity EC50 ± SD Replicon Assay Con1-1b.
A short description of series [2]: Cell proliferation (cytotoxicity) assay, WST-1. Format: cell-based. The settings on record: human. As for the experimental part:
Cell Proliferation Assay: Huh 7.5.1 cells were seeded at a density of 2 × 10^4 cells per well in 96-well plates overnight. The cells were respectively incubated with serial diluted compounds for 48 h, and the viability of Huh7.5.1 cells was determined in 96-well tissue culture plates using cell proliferation reagent WST-1 (Roche, Basel, Switzerland). The absorbance (OD450 /reference OD630) was measured to detect the cytotoxicity of compounds, according to the manufacturer’s protocol of Cell Proliferation Reagent WST-1.
In general terms: Tetrazolium dyes change colour on reduction, which living cells bring about.

Another series deals with HCV subgenomic replicon. The following applies: cited from earlier work.
The next series deals with JFH1-2a (S282T) virus. The series can be described thus: HCV virus assay, mutant JFH1-2a (S282T) virus strain. Format: cell-based. The following applies: Hepatitis C virus, read-out: Anti-HCV Activity (Virus Assay) EC50 ± SD JFH1-2a (S282T).
Setting [3] is: Table 4, read-out: Anti-HCV Activity EC50 ± SD Replicon Assay JFH1-2a.
Setting [4] is: Huh-7.5.1, read-out: Anti-HCV Activity EC50 ± SD Virus Assay JFH1-2a.

Like-named read-outs stand apart in the source and are kept apart here. Where only a bound is given, the exact number is not on record here.

Chain of CypA (P62937 whole entry): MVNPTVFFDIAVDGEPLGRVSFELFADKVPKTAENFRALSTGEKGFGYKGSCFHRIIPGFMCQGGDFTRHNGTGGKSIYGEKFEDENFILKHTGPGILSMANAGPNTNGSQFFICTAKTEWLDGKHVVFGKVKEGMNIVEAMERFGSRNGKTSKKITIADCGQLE

Turning to `CC(=O)Oc1cccc(O)c1C(=O)NC(=O)NC1c2ccccc2-c2ccccc21` [Compound 14, 1-(2-Acetoxy-6-hydroxybenzoyl)-3-(9H-fluoren-9-yl)-urea], at CypA, the half-maximal inhibitory concentration (IC50) – broadly, the concentration at which inhibition is half-maximal – stood at 2.43 ± 0.5 µM. Further, the EC50 (in general, the concentration that produces a half-maximal response) with HCV JFH1-2a replicon (Table 1, mean ± SD of three independent experiments, read-out: Anti-HCV JFH1-2a Replicon Assay EC50 ± SD) turned out to be 0.55 ± 0.03 µM; with HCV JFH1-2a replicon (setting [3]), 0.55 ± 0.03 µM; in series [1] (setting [4]), 0.71 ± 0.34 µM; in the series with HCV H77-1a replicon, 0.77 ± 0.37 µM; in the series on HCV Con1-1b replicon, 0.8 ± 0.23 µM. Besides, the CC50 (usually the concentration giving 50% cytotoxicity) at 48 h in series [2] (Huh 7.5.1 cells, Table 4, 48 h) was above 16 µM.

On to `O=C(NC(=O)c1c(O)cccc1OC(=O)c1ccccc1)NC1c2ccccc2-c2ccccc21` [Compound 18, 1-(2-Benzoyloxy-6-hydroxybenzoyl)-3-(9H-fluoren-9-yl)-urea], for which the melting point (as a rule, the temperature, or range, at which the solid turns liquid) lay within 211 to 214 °C. Besides, on CypA, the midpoint of inhibition, the IC50, lay at 1.99 ± 0.47 µM. In the series on HCV JFH1-2a replicon (setting [3]), the EC50 was 1.05 ± 0.01 µM. The concentration for a half-maximal effect (EC50) in series [1] (setting [4]) amounted to 0.7 ± 0.23 µM. Besides, the EC50 in the series with HCV H77-1a replicon turned out to be 0.6 ± 0.35 µM. Besides, in the series with HCV Con1-1b replicon, the concentration giving a half-maximal response (EC50) was 1.03 ± 0.02 µM. In addition, the CC50 at 48 h in series [2] (Huh 7.5.1 cells, Table 4, 48 h) was above 16 µM.

Turning to `C/C=C/C[C@@H](C)[C@@H](O)[C@H]1C(=O)N[C@@H](CC)C(=O)N(C)[C@H](SCCN(C)C)C(=O)N(C)[C@@H](CC(C)(C)O)C(=O)N[C@@H](C(C)C)C(=O)N(C)[C@@H](CC(C)C)C(=O)N[C@@H](C)C(=O)N[C@H](C)C(=O)N(C)[C@@H](CC(C)C)C(=O)N(C)[C@@H](CC(C)C)C(=O)N(C)[C@@H](C(C)C)C(=O)N1C` [SCY-635], the EC50 in the series with HCV subgenomic replicon (ref [27], read-out: EC50 (subgenomic replicon assay, con1-derived)) is 0.1 µM.

Take `CC(C)OC(=O)[C@H](C)N[P@](=O)(OC[C@H]1O[C@@H](n2ccc(=O)[nH]c2=O)[C@](C)(F)[C@@H]1O)Oc1ccccc1` [Sofosbuvir, reference compound]: the EC50 with JFH1-2a (S282T) virus was determined as 1.14 ± 0.21 µM; in [1] (Huh-7.5.1, read-out: Anti-HCV Activity (Virus Assay) EC50 ± SD JFH1-2a (Wild Type)), 0.22 ± 0.07 µM. The CC50 at 48 h in series [2] (Table 5) was above 20 µM.

Take `C/C=C/C[C@@H](C)[C@@H](O)[C@H]1C(=O)N[C@@H](CC)C(=O)N(C)[C@H](C)C(=O)N(CC)[C@@H](C(C)C)C(=O)N[C@@H](C(C)C)C(=O)N(C)[C@@H](CC(C)C)C(=O)N[C@@H](C)C(=O)N[C@H](C)C(=O)N(C)[C@@H](CC(C)C)C(=O)N(C)[C@@H](CC(C)C)C(=O)N(C)[C@@H](C(C)C)C(=O)N1C` [alisporivir]: the concentration giving a half-maximal response (EC50) in the series on HCV subgenomic replicon (ref [6], read-out: EC50 (subgenomic replicon assay)) was 0.045 µM.
